{"source": "paper PMC8920379", "about": "“The discovery of berberine erythrocyte-hemoglobin self-assembly delivery system: a neglected carrier underlying its pharmacokinetics” (Drug Delivery, 2022)", "key": {"Hemolysis rate": {"experiment": "Hemolysis rate", "type": "cell-based, rats", "details": "rat, washed rat erythrocytes, 2% hematocrit suspension, 2% erythrocytes, 37 °C", "experimental": "(§1) The whole blood was collected from rats by orbital plexus vein and transferred into a blood-collection tube containing ethylene diamine tetraacetic acid (EDTA) as an anticoagulant. The whole blood was centrifuged at 3000 rpm for 10 min. The plasma and the buffy coat in the supernatant were removed by aspiration, and erythrocytes were washed three times in cold phosphate buffer saline (PBS) and centrifuged for 10 min at 3000 rpm, and then resuspended in an appropriate volume of PBS.\n(§2) The hematocrite of washed erythrocytes was adjusted by PBS to 2%. In 5-mL Eppendorf tubes, 1 mL of 2% erythrocytes was incubated with 1 mL of different concentrations of BBR hydrochloride at 37 °C for 2 h. The final concentrations of BBR hydrochloride in reaction system were 0.125, 0.250, 0.500, 1.000, 1.333, 1.500, 1.600 mg/mL, respectively. One mL of 2% erythrocytes incubated with 1 mL saline solution served as the […] group while 1 mL 2% erythrocytes incubated with 1 mL distilled water served as the […] one. After incubation, the erythrocytes suspension was centrifuged at 3000 rpm for 10 min. Then 150 μL supernatant was added to the 96-well plate. Three parallel wells were set for each group, and the absorbance at 545 nm of each sample well was measured by a microplate reader. The imaging system was employed to observe whether BBR induced hemolysis. The hemolysis rate was calculated according to the following formula: Hemolysis rate (%) = [(ODsample−ODnegative)/(ODpositive −ODnegative)] ×100%"}, "2% erythrocytes": {"tested_on": "2% erythrocytes", "experiment": "Hemolysis rate", "type": "cell-based, rats", "details": "37 °C, 2 h", "experimental": "as §1, §2"}, "30% erythrocytes": {"tested_on": "30% erythrocytes", "experiment": "Berberine loading of erythrocytes (loading efficiency)", "type": "in vitro ADME, rats", "details": "37 °C, 2 h, n = 3", "experimental": "as §1\nIn order to determine the effect of BBR concentration on loading efficiency, different concentrations (1.000, 0.100, 0.010 and 0.001 M) of BBR were comparatively used at 37 °C for fixed incubation time (2 h) to obtain the more suitable concentration for the loading process. The hematocrite of washed erythrocytes was adjusted by PBS to 30%. In the 5-mL Eppendorf tubes, 1 mL of 30% erythrocytes was added to 1 mL PBS containing the known concentration of the agent. The final concentrations of BBR in the reaction system were […] (185, 18.5, 1.85 and 0.185 μg/mL), respectively. The mixtures were gently mixed to avoid hemolysis and incubated for 2 h at 37 °C. After incubation, the erythrocytes suspension was centrifuged for 10 min at 3000 rpm and the supernatant was collected.\nIn order to verify the binding system, the supernatant was analyzed by quantifying the amount of unbound BBR through HPLC. In order to offset this effect, an internal standard method was employed in this study and piperine was chosen as the internal standard substance (200 μg/mL). Different known concentrations (500.00, 100.00, 20.00, 4.00, 0.80, 0.16 μg/mL) of BBR and piperine were used to create the standard curve. The peak area of each concentration with the concentration of piperine was measured 3 times. And then, the calibration curves were prepared using linear regression of known drug concentration versus peak area. The unknown concentration of BBR was analyzed by the regressed equation: y = a(x) + b. While y is the peak area ratio of BBR and piperine, a is the slope, b is the y-intercept, and x is the concentration of BBR.\nAfter incubation, acetonitrile was added to the different incubated solutions for protein precipitation. The mixtures were centrifuged at 8000 rpm for 10 min. The supernatants were collected and dried. The eluates were concentrated and re-dissolved for analysis. The loading efficiency was calculated according to the following formula: Loading efficiency (%) = [(Moriginal drug−Mdrug after incubation)/Moriginal drug] ×100%"}, "bovine hemoglobin (BHB)": {"biological_target": "T1, bovine hemoglobin (BHB) (Bos taurus, UniProt P01966+P02070)", "T1 construct": "purchased Sigma Aldrich", "T1 sequence (P01966 2-142 limits assumed)": "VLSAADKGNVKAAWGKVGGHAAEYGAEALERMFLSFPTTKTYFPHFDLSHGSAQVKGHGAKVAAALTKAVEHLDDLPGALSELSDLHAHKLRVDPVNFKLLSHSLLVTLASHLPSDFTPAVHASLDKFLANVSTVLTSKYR", "T1 sequence (P02070 whole entry)": "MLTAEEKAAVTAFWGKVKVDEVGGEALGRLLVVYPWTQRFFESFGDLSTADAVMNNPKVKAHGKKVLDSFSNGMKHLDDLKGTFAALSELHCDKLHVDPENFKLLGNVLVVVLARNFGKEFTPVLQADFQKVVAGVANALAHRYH", "experiment": "Circular dichroism of BHB-BBR systems", "type": "binding", "details": "CD, BHB:BBR molar ratios up to 1:8, reduced from 36.87% for BHB alone, pH 7.4, 298 K", "experimental": "In addition, CD spectra were collected from 200 to 260 nm with three scans averaged for each CD spectrum. The molar ratio (1:1) of BHB: BBR was used for the measurement. Briefly, BHB and BBR were dissolved in Tris-HCl (pH 7.4), and the solutions were freeze-dried into powder. Raman spectra were measured from 2600 to 400 cm^−1 using the Nd-YAG laser (1064 nm). Due to the existence of inner filter effects, the fluorescence parameter was corrected using the equation: F=F0×10^(AEX+AEM/2) where F and F0 are the fluorescence intensity corrected and observed, respectively; AEX and AEM are the sums of the absorbance of samples at excitation and emission wavelengths (Chen et al., [2021]).\nIn this work, the molar ratios of 1:0, 1:2, 1:4 and 1:8 for BHB: BBR were utilized for the CD records. […] Besides, the helix of α chain can be calculated following the below equation: α−Helix(%)=−MRE208−4000/33000−4000×100 where MRE208 is the observed MRE value at 208 nm, 4000 is the MRE value of β-form and random coil conformation cross at 208 nm, and 33,000 is the MRE value of pure α-helix at 208 nm (Shobini et al., [2001])."}, "[1]": {"details": "BBR 0.185 μg/mL in BBR-erythrocyte system"}, "[2]": {"details": "BBR 1.850 μg/mL in BBR-erythrocyte system"}, "[3]": {"details": "BBR 18.500 μg/mL in BBR-erythrocyte system"}}, "note": "“And” between values parts separate entries of the source, which are not always exact repeats. Equal entries are not always repeated."}
{"smiles": "COc1ccc2cc3[n+](cc2c1OC)CCc1cc2c(cc1-3)OCO2", "note": "[BBR, Berberine]", "values": [{"measurement": "hemolysis at 2 h, 1.5 mg/mL", "setting": "Hemolysis rate; BBR 1.50 mg/mL", "result": 58.2, "unit": "%"}, {"measurement": "hemolysis at 2 h, 1.6 mg/mL", "setting": "Hemolysis rate; BBR 1.60 mg/mL", "result": 89.7, "unit": "%"}, {"measurement": "hemolysis of the BBR-erythrocyte system", "setting": "2% erythrocytes; BBR 1.00 mg/mL", "result": "relatively stable without hemolysis"}, {"measurement": "hemolysis of the erythrocyte", "setting": "2% erythrocytes; BBR concentration below 1.00 mg/mL", "result": "no hemolysis"}, {"measurement": "Extracellular BBR concentration after incubation", "setting": "30% erythrocytes; [1]", "result": "0 ± 0.051", "unit": "µg/mL"}, {"measurement": "Loading percentage", "setting": "30% erythrocytes; [1]", "result": "100% and 100 ± 19.84%"}, {"measurement": "Extracellular BBR concentration after incubation", "setting": "30% erythrocytes; [2]", "result": "0.115 ± 0.072", "unit": "µg/mL"}, {"measurement": "Loading percentage", "setting": "30% erythrocytes; [2]", "result": "95.528 ± 2.622", "unit": "%"}, {"measurement": "Extracellular BBR concentration after incubation", "setting": "30% erythrocytes; [3]", "result": "2.288 ± 0.105", "unit": "µg/mL"}, {"measurement": "Loading percentage", "setting": "30% erythrocytes; [3]", "result": "88.772 ± 0.410", "unit": "%"}, {"measurement": "α-helicity of BHB after addition of BBR", "setting": "bovine hemoglobin (BHB)", "result": 33.53, "unit": "%"}]}
